The results in this text go back to PubChem BioAssay AID192 (DTP/NCI, 2004).

This experiment concerns BDF1 mice, B16 melanoma ip, median survival T/C. Put plainly: NCI In Vivo Anticancer Drug Screen. Data for tumor model B16 Melanoma (intraperitoneal) in B6D2F1 (BDF1) mice. The conditions noted are these: endpoint: median survival time, higher = longer survival. The method in brief: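 Transplantable tumor model; survival or tumor size measured; reported as T/C, treated over vehicle control.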

Each structure is given as a SMILES string. “And” between values parts separate entries of the source, which are not always exact repeats. Equal values may be shown once. Inconclusive results and toxic doses are left out. Numbered stars: 1 amine (or outer) side, 2 acyl side, 3 side chain; on linkers, the order of the positions; unused ones are H or OH. Bridge positions count the residues as written; N and C are the ends. Square brackets hold non-standard residues; d marks the D form. Peptide text beside a SMILES is read from it. I, II: the chains in the order shown. Actinocin(9to1) = Cc1c2oc3c(C)ccc(C(=O)[*:1])c3nc-2c(C(=O)[*:2])c(N)c1=O; aThr = C[C@H](O)[C@H](N)C(=O)O; NMeV = CN[C@H](C(=O)O)C(C)C; Sar = CNCC(=O)O

In the case of `CC(=O)ON=C1C=CC(=C(C#N)c2ccccc2)C=C1`, the T/C by setting is: (dose: 25.0 mg/kg/injection, schedule: Q01DX009 (ip), vehicle: saline with Tween-80) 86 % of control; (dose: 50.0 mg/kg/injection, schedule: Q01DX009 (ip), vehicle: saline with Tween-80) 86 % of control; (dose: 100.0 mg/kg/injection, schedule: Q01DX009 (ip), vehicle: saline with Tween-80) 92 % of control.

Consider `Cc1c2oc3c(C)ccc(C(=O)N[C@@H]4C(=O)N[C@H](C(C)C)C(=O)N5CCC[C@H]5C(=O)N(C)CC(=O)N(C)[C@@H](C(C)C)C(=O)O[C@H]4C)c3nc-2c(C(=O)N[C@@H]2C(=O)N[C@H](C(C)C)C(=O)N3CCC[C@H]3C(=O)N(C)CC(=O)N(C)[C@@H](C(C)C)C(=O)O[C@H]2C)c(N)c1=O` (I: [aThr][dV]P[Sar][NMeV] / II: [aThr][dV]P[Sar][NMeV]; ester I:1-I:C, II:1-II:C; linker I:N-II:N via Actinocin(9to1)), for which the T/C runs as follows: (dose: 0.03 mg/kg/injection, schedule: Q01DX009 (ip), vehicle: water) 157 % of control; (dose: 0.05 mg/kg/injection, schedule: Q01DX009 (ip), vehicle: water) 186 % of control; (dose: 0.05 mg/kg/injection, schedule: Q04DX003 (ip), vehicle: saline) 123 % of control and 124 % of control; (dose: 0.08 mg/kg/injection, schedule: Q01DX009 (ip), vehicle: saline) 169 % of control; (dose: 0.13 mg/kg/injection, schedule: Q01DX009 (ip), vehicle: saline) 44 % of control; (dose: 0.2 mg/kg/injection, schedule: Q04DX003 (ip), vehicle: saline) 164 % of control. For the same compound, the T/C was 42 % of control (dose: 0.22 mg/kg/injection, schedule: Q01DX009 (ip), vehicle: saline); 65 % of control and 69 % of control (dose: 0.4 mg/kg/injection, schedule: Q04DX003 (ip), vehicle: saline); 119 % of control (dose: 0.5 micrograms/kg/injection, schedule: Q01DX009 (ip), vehicle: saline); 116 % of control (dose: 2.0 micrograms/kg/injection, schedule: Q01DX009 (ip), vehicle: saline); 150 % of control (dose: 4.0 micrograms/kg/injection, schedule: Q01DX009 (ip), vehicle: saline); 101 % of control (dose: 6.25 micrograms/kg/injection, schedule: Q01DX009 (ip), vehicle: saline). The T/C (dose: 6.3 micrograms/kg/injection, schedule: Q01DX009 (ip), vehicle: saline) was 96 % of control; the T/C (dose: 6.5 micrograms/kg/injection, schedule: Q01DX009 (ip), vehicle: saline) was 120 % of control; the T/C (dose: 10.8 micrograms/kg/injection, schedule: Q01DX009 (ip), vehicle: saline) was 112 % of control; the T/C (dose: 12.5 micrograms/kg/injection, schedule: Q01DX009 (ip), vehicle: water) was 120 % of control; the T/C (dose: 16.0 micrograms/kg/injection, schedule: Q01DX009 (ip), vehicle: saline) is 157 % of control; the T/C (dose: 16.0 micrograms/kg/injection, schedule: Q01DX017 (ip), vehicle: saline) is 185 % of control. For the same compound, the T/C was 123 % of control (dose: 21.6 micrograms/kg/injection, schedule: Q01DX009 (ip), vehicle: saline + alcohol); 120 % of control (dose: 25.0 micrograms/kg/injection, schedule: Q01DX009 (ip), vehicle: saline + alcohol); 120 % of control (dose: 32.0 micrograms/kg/injection, schedule: Q01DX005 (ip), vehicle: saline); 155 % of control (dose: 32.0 micrograms/kg/injection, schedule: Q01DX009 (ip), vehicle: saline); 200 % of control (dose: 32.0 micrograms/kg/injection, schedule: Q01DX017 (ip), vehicle: saline); 152 % of control (dose: 36.0 micrograms/kg/injection, schedule: Q01DX009 (ip), vehicle: saline + alcohol). Also, the T/C runs as follows: (dose: 37.5 micrograms/kg/injection, schedule: Q01DX009 (ip), vehicle: saline + alcohol) 153 % of control; (dose: 37.5 micrograms/kg/injection, schedule: Q01DX009 (ip), vehicle: saline) 159 % of control; (dose: 37.5 micrograms/kg/injection, schedule: Q04DX003 (ip), vehicle: saline) 118 % of control; (dose: 38.9 micrograms/kg/injection, schedule: Q04DX003 (ip), vehicle: saline + alcohol) 123 % of control; (dose: 50.0 micrograms/kg/injection, schedule: Q01DX009 (ip), vehicle: saline + alcohol) 158 % of control; (dose: 50.0 micrograms/kg/injection, schedule: Q01DX009 (ip), vehicle: water) 152 % of control and 166 % of control. In addition, the T/C is 152 % of control and 161 % of control (dose: 60.0 micrograms/kg/injection, schedule: Q01DX009 (ip), vehicle: saline + alcohol); 152 % of control (dose: 64.0 micrograms/kg/injection, schedule: Q01DX005 (ip), vehicle: saline); 154 % of control (dose: 64.8 micrograms/kg/injection, schedule: Q04DX003 (ip), vehicle: saline + alcohol); 186 % of control (dose: 75.0 micrograms/kg/injection, schedule: Q01DX009 (ip), vehicle: saline); 123 % of control (dose: 75.0 micrograms/kg/injection, schedule: Q04DX003 (ip), vehicle: water); 175 % of control (dose: 83.0 micrograms/kg/injection, schedule: Q01DX009 (ip), vehicle: saline). Also, the T/C runs as follows: (dose: 100.0 micrograms/kg/injection, schedule: Q01DX009 (ip), vehicle: saline + alcohol) 169 % of control; (dose: 100.0 micrograms/kg/injection, schedule: Q01DX009 (ip), vehicle: water) 175 % of control; (dose: 108.0 micrograms/kg/injection, schedule: Q04DX003 (ip), vehicle: saline + alcohol) 150 % of control and 159 % of control and 160 % of control; (dose: 128.0 micrograms/kg/injection, schedule: Q01DX005 (ip), vehicle: saline) 165 % of control; (dose: 128.0 micrograms/kg/injection, schedule: Q04DX003 (ip), vehicle: saline) 150 % of control; (dose: 180.0 micrograms/kg/injection, schedule: Q04DX003 (ip), vehicle: saline + alcohol) 164 % of control and 172 % of control and 176 % of control. The T/C runs as follows: (dose: 225.0 micrograms/kg/injection, schedule: Q04DX003 (ip), vehicle: saline + alcohol) 91 % of control; (dose: 225.0 micrograms/kg/injection, schedule: Q04DX003 (ip), vehicle: saline) 159 % of control; (dose: 256.0 micrograms/kg/injection, schedule: Q04DX003 (ip), vehicle: saline) 165 % of control; (dose: 300.0 micrograms/kg/injection, schedule: Q04DX003 (ip), vehicle: saline) 168 % of control and 169 % of control; (dose: 300.0 micrograms/kg/injection, schedule: Q04DX003 (ip), vehicle: water) 106 % of control; (dose: 500.0 micrograms/kg/injection, schedule: Q04DX003 (ip), vehicle: saline + alcohol) 101 % of control. Also, the T/C is 92 % of control (dose: 512.0 micrograms/kg/injection, schedule: Q01DX001 (ip), vehicle: saline) and 231 % of control (dose: 600.0 micrograms/kg/injection, schedule: Q04DX003 (ip), vehicle: saline).

`CC1CN1CC(O)C(O)CN1CC1C` (stereo unspecified): the T/C is 100 % of control (dose: 0.25 mg/kg/injection, schedule: Q01DX009 (ip), vehicle: saline); 110 % of control (dose: 0.4 mg/kg/injection, schedule: Q01DX009 (ip), vehicle: saline); 107 % of control and 102 % of control (dose: 0.5 mg/kg/injection, schedule: Q01DX009 (ip), vehicle: saline); 118 % of control (dose: 0.6 mg/kg/injection, schedule: Q01DX009 (ip), vehicle: saline); 150 % of control (dose: 0.63 mg/kg/injection, schedule: Q01DX009 (ip), vehicle: saline); 110 % of control (dose: 0.8 mg/kg/injection, schedule: Q01DX009 (ip), vehicle: saline). The T/C is 153 % of control (dose: 0.9 mg/kg/injection, schedule: Q01DX009 (ip), vehicle: saline); 93 % of control (dose: 1.25 mg/kg/injection, schedule: Q01DX009 (ip), vehicle: saline); 156 % of control and 151 % of control (dose: 2.0 mg/kg/injection, schedule: Q01DX009 (ip), vehicle: saline); 106 % of control (dose: 2.5 mg/kg/injection, schedule: Q01DX009 (ip), vehicle: saline).

For the compound `CN1CCC(CN2c3ccccc3Sc3ccccc32)C1` (stereo unspecified), the T/C (dose: 3.12 mg/kg/injection, schedule: Q01DX009 (ip), vehicle: saline) is 105 % of control; the T/C (dose: 6.25 mg/kg/injection, schedule: Q01DX009 (ip), vehicle: saline) was 89 % of control; the T/C (dose: 12.5 mg/kg/injection, schedule: Q01DX009 (ip), vehicle: saline) was 94 % of control; the T/C (dose: 25.0 mg/kg/injection, schedule: Q01DX009 (ip), vehicle: saline) is 107 % of control; the T/C (dose: 50.0 mg/kg/injection, schedule: Q01DX009 (ip), vehicle: saline) was 92 % of control.

Take `Cc1nc(/N=N/c2nc(C)c(C)[nH]2)[nH]c1C`: the T/C reads like this: (dose: 100.0 mg/kg/injection, schedule: Q01DX009 (ip), vehicle: Klucel (hydroxypropylcellulose) (HPC)) 102 % of control; (dose: 200.0 mg/kg/injection, schedule: Q01DX009 (ip), vehicle: Klucel (hydroxypropylcellulose) (HPC)) 101 % of control; (dose: 400.0 mg/kg/injection, schedule: Q01DX009 (ip), vehicle: Klucel (hydroxypropylcellulose) (HPC)) 96 % of control.
